{"source": "patent US20080311037A1", "about": "“Compounds which bind PSMA and uses thereof” (priority 2005, published 2008)", "key": {"[1]": {"target": "T1, PSMA (Homo sapiens, UniProt Q04609)", "assay": "Binding of 3H-ZJ24 to recombinant hPSMA, Scatchard analysis", "parameters": "Recombinant protein of the extracellular domain of PSMA can also exist in readily inter-convertible dimer-monomer forms", "details": "50 mM Tris buffer pH 7.5, 30 min, 37° C", "protocol": "FIG. 2 is a graph showing binding to the monomeric and active dimeric form of soluble recombinant hPSMA of a ^3H (tritium) radiolabled (ZJ24), ^3H—(S)-2-[3-((R)-1-carboxy-2-methyl-sulfanyl-ethyl)-ureido]-pentanedioic acid or [^3H]MeCys-C(O)-Glu Parent PMSA ligand (6) maintains its specificity for PSMA by binding to recombinant hPSMA with a Kd of 2 nM based on Scatchard analysis. The binding assay was performed in 50 mM Tris buffer (pH 7.5). Briefly, 0.5 μg of recombinant PSMA was incubated with ^3H-ZJ24 in a total volume of 100 μL for 30 min at 37° C. The mixture was centrifuged through a 50K cutoff membrane. Then 50 μL of filtrate was added to 4 mL of cocktail and the radioactivity measured. […] After 60 min less than 10% of the compound found in kidney and plasma was degraded."}, "[2]": {"target": "T1, PSMA", "assay": "Inhibition of folate hydrolase activity of PSMA, PSMA positive membrane preparations, substrate MTXGlu2, HPLC", "type": "biochemical", "parameters": "host or cells: PSMA positive membrane preparations", "protocol": "(§1) Described herein are new compounds, which can activate RNase L in PSMA expressing cells. 2-5A was targeted for delivery to PSMA by linking it with a ligand to PSMA. We modified ZJ24, a low molecular weight ligand for PSMA, with 2-5A through a 4-(N-maleimidomethyl)cyclohexane-1-amidate linkage to generate RBI 1033. The inhibitory activity of RBI 1033 to the folate hydrolase activity of PSMA was measured. The PSMA positive membrane preparations were incubated with different concentrations of ZJ24, RBI 1033 and RBI 1032 (2-5A with linker only) together with the substrate methotrexate diglutamate (MTXGlu2) for 1 h. The amount of methotrexate and MTXGlu2 were then determined by HPLC. […] Binding studies were performed by incubating membranes with different concentrations of drugs in the presence of 12 nM of ^3H-ZJ24 for 30 min. […] These studies indicate that RBI 1033 has excellent binding properties to PSMA, which can enable it to serve as a vector for imaging or therapy."}, "[3]": {"target": "T1, PSMA", "assay": "Inhibition of 3H-ZJ24 binding to cell membranes", "parameters": "host or cells: PSMA positive membrane preparations", "protocol": "as §1"}, "[4]": {"target": "T2, active dimeric form of soluble recombinant hPSMA (Homo sapiens, UniProt Q04609)", "T2 construct": "Recombinant protein of the extracellular domain of PSMA can also exist in readily inter-convertible dimer-monomer forms", "T2 sequence (Q04609 44-750 limits assumed)": "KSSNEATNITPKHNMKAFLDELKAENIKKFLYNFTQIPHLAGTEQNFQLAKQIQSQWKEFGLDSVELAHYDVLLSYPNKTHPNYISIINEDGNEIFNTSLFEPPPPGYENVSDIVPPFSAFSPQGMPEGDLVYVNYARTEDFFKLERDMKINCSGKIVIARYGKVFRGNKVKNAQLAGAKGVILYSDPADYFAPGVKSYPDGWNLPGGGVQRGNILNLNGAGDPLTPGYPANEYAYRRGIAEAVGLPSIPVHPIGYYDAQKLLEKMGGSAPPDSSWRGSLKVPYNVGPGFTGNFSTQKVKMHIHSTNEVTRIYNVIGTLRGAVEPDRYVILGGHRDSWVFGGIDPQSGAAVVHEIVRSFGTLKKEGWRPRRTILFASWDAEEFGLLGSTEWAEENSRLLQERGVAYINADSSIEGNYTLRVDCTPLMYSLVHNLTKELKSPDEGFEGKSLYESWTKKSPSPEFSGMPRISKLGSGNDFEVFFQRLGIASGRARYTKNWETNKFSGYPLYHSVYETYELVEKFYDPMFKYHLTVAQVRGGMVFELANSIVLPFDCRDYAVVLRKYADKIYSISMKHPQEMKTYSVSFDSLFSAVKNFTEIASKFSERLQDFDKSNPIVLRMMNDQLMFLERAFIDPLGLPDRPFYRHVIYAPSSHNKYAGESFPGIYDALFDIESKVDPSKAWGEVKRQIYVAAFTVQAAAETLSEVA", "assay": "Competition binding assay with 3H-ZJ24 on recombinant PSMA", "details": "0.5 μg recombinant PSMA, 12 nM 3H-ZJ24, 30 min, 37° C", "protocol": "Binding and activity of the disclosed 2-5A ligand towards the active dimeric form of soluble recombinant hPSMA was compared with methylated parent ligand Cys-C(O)-Glu ZJ24. The binding assay examines the ability of a novel compound to compete for binding with radio-labeled ZJ24. Different final concentrations of the inhibitor can be incubated in the presence of ZJ24 and the concentration required to inhibit 50% of binding is determined (the EC50). Briefly, 0.5 μg of recombinant PSMA was incubated with the ligand to be tested at different concentrations and 12 nM of ^3H-ZJ24 in a total volume of 100 μL for 30 min at 37° C. The mixture was centrifuged through a 50 kDa cut-off membrane. Finally, 4 mL of biodegradable counting cocktail Bio-Safe II was added, and radioactivity was counted."}, "[5]": {"target": "T1, PSMA", "assay": "PSMA activity assay, hydrolysis of polyglutamate substrate MTXGlu2", "type": "biochemical", "parameters": "Recombinant protein of the extracellular domain of PSMA can also exist in readily inter-convertible dimer-monomer forms", "details": "5 ng recombinant PSMA, MTXGlu2 5 nMol, 37° C, 1 h; read-out: EC50 for inhibition of PSMA activity", "protocol": "The activity assay determines the ability of hPSMA to cleave/hydrolyze a polyglutamte substrate under the presence of a ligand at different concentrations. Briefly, recombinant PSMA (5 ng) was incubated with ZJ24 or disclosed 2-5A ligand. After 30 min the polyglutamate substrate MTXGlu2 (5 nMol) was added and the mixture was incubated at 37° C. for 1 h. The reaction was stopped by the addition of 100 μL of 50 mM Na2HPO4. The amount of MTX formed was analyzed using a Thermo Hypersil PRISM RP column (50×4.6 mm, flow rate 1.0 mL/min) at 313 nm."}}}
{"molecule": "O=C(O)CCC(NC(=O)NC(CS)C(=O)O)C(=O)O", "note": "(stereo not shown) [Parent PMSA ligand (6)]", "values": [{"measurement": "Kd", "setting": "[1]", "result": 2, "unit": "nM"}]}
{"molecule": "Nc1ncnc2c1ncn2[C@@H]1O[C@H](COP(O)(O)=S)[C@@H](O)[C@H]1OP(O)(=S)OC[C@H]1O[C@@H](n2cnc3c(N)ncnc32)[C@H](OP(O)(=S)OC[C@H]2O[C@@H](n3cnc4c(N)ncnc43)[C@H](OP(O)(=S)OCCCNC(=O)C3CCC(CN4C(=O)CC(SC[C@H](NC(=O)N[C@@H](CCC(=O)O)C(=O)O)C(=O)O)C4=O)CC3)[C@@H]2O)[C@@H]1O", "note": "(stereo partly shown) [RBI 1033]", "values": [{"measurement": "times more potent than ZJ24 as folate hydrolase inhibitor", "setting": "[2]; compared to ZJ24", "result": "more than 10 times"}, {"measurement": "times higher affinity to PSMA than ZJ24", "setting": "[3]; compared to ZJ24", "result": "more than 10 times"}]}
{"molecule": "(S)-2-[3-((R)-1-carboxy-2-methyl-sulfanyl-ethyl)-ureido]-pentanedioic acid [ZJ24]", "values": [{"measurement": "EC50", "setting": "[4]", "result": 15.3, "unit": "nM"}, {"measurement": "IC50", "setting": "[2]; PSMA positive membrane preparations, MTXGlu2 substrate, 1 h, read-out: IC50 as folate hydrolase inhibitor", "result": 53.9, "unit": "nM"}, {"measurement": "IC50", "setting": "[3]; 12 nM 3H-ZJ24, 30 min, read-out: IC50 for inhibition of binding of 3H-ZJ24 to the cell membrane", "result": 15.3, "unit": "nM"}, {"measurement": "EC50", "setting": "[5]", "result": 56.7, "unit": "nM"}]}
